Molecular target: T1, HDNO D6 (Paenarthrobacter nicotinovorans, UniProt P08159, A237T/A42S/E349L/E351D/N413H/V430A)
T1 construct: This full-length gene design was then used to introduce genetic diversity to create a library; His tag (N); made in house; host or cells: E. coli BL21 (DE3)
Assay: Biotransformation turnover frequencies of amine substrates (GC-FID)
Format: biochemical, Arthrobacter nicotinovorans
Conditions: for TOF: HDNO D6 0.05 mg mL^−1, 10 mM substrate, 30° C., pH 8 100 mM buffer, conversions after 10 min; for Fold increase vs D2: TOF of HDNO D6 over HDNO D2 (0.2 mg ml^−1)
Protocol: Chiral normal phase HPLC was performed on an Agilent HPLC system (G1379A degasser, G1312A binary pump, a G1367A well plate autosampler unit, a G1316A temperature-controlled column compartment and a G1315C diode array detector) (Agilent Technologies Inc., Santa Clara, CA) equipped with a CHIRALCEL OD-H (250 mm length, 4.6 mm diameter, 5 μm particle size) analytical column (Daicel Corp., Osaka, Japan). The typical injection volume was 10 μL and chromatograms were monitored at 265 nm. Gas chromatographic (GC) analysis was performed on an Agilent 6850 GC (Agilent Technologies Inc., Santa Clara, CA) with a flame ionization detector and autosampler equipped with a HP-1 column of length 30 m, 0.32 mm inner diameter and 0.25 μm film thickness (Agilent Technologies Inc., Santa Clara, CA).
A typical 500 μL reaction mixture in a 2 mL tube contained 10 mM amine, 0.05 to 1 mg mL^−1 of purified HDNO variant in pH 8 100 mM NaPi buffer. Reactions were incubated at 30° C. with 250 r.p.m shaking for different reaction times, after which they were quenched by the addition of 50 μL of 10 M NaOH and extracted twice with 500 μL tert-butyl methyl ether (HPLC grade, Merck Life Science UK Limited, Gillingham). The organic fractions were combined and dried over anhydrous MgSO4 and analysed by GC-FID (conversions) or HPLC (enantiomeric ratios) on a chiral stationary phase (see Chromatography section for details). Turnover frequencies (TOF, min^−1) were calculated as the moles of product formed/moles of enzyme min^−1 based on conversions obtained by GC-FID analysis (see Chromatography method). The same response factor was considered for both substrate and product.

T1 sequence (P08159 other isoform, or with tags, fused parts or gaps A42S/A237T/E349L/E351D/N413H/V430A/C432S): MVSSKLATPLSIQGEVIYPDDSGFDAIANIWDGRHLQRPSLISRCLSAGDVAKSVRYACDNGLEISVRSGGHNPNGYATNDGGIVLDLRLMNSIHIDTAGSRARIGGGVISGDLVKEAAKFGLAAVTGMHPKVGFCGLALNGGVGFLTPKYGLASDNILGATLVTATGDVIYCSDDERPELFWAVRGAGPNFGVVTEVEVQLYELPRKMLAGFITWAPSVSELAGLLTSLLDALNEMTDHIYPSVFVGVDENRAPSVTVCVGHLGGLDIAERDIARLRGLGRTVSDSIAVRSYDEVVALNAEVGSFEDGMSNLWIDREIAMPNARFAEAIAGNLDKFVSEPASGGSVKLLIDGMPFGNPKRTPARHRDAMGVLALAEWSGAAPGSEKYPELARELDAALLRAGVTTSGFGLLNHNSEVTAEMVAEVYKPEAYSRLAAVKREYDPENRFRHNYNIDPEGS

| Compound | TOF | Fold increase vs D2 [fold] |
| --- | --- | --- |
| c1ccc([C@H]2CCCN2)cc1 [Mutant 1a, (R)-2-phenylpyrrolidine] | 79.8 min⁻¹ | 5.8 |
| CN(C)c1ccc(C2CCCN2)cc1 (centres unmarked) [Mutant 1b, 2-(4-dimethylaminophenyl)-pyrrolidine] | 181.2 min⁻¹ | 10.2 |
| c1ccc(CCC2CCCN2)cc1 (centres unmarked) [Mutant 1c] | 28.8 min⁻¹ | 5.9 |
| Clc1cccc(C2CCCN2)c1 (centres unmarked) [Mutant 1d] | 135.6 min⁻¹ | – |
| c1ccc(CCC2CCCCN2)cc1 (centres unmarked) [Mutant 1f] | 8.4 min⁻¹ | – |
| CC(N)c1ccccc1 (centres unmarked) [Mutant 1g] | 0.66 min⁻¹ | – |
| CCCCC[C@@H](C)N [Mutant 1h] | 0.42 min⁻¹ | – |
| C1CC2CNCC2C1 (centres unmarked) [Mutant 1i] | no measurable activity | – |

— patent publication US20240282401A1, “METHODS FOR ENZYME ENGINEERING” (The University of Manchester, priority 2021, published 2024)
